Values of other authors in paper PMC2819846 (Mutation research, 2008).

Test system: Salmonella
Details: TA100; cited from earlier work

SMILES: O[C@H]1C=Cc2ccc3c(sc4ccccc43)c2[C@@H]1O [[2,1]BNT-1,2-diol]
- Mutagenicity in Salmonella TA100: not mutagenic
